Where “and” joins values, the source holds several entries; their conditions need not be identical. Identical values can stand only once.
Columns and labels:
[1] = Closed cell (Static) method
[2] = molar heat capacity at constant pressure

NCCO [2-aminoethan-1-ol]
vapor or sublimation pressure, [1]
Settings | Crystal | Metastable liquid
258.17 K | 0.00078 kPa and 0.00077 kPa and 0.00076 kPa | –
263.17 K | 0.00142 kPa | –
268.17 K | 0.00264 kPa and 0.00265 kPa | –
273.65 K | 0.0052 kPa and 0.00519 kPa and 0.00518 kPa | 0.00646 kPa
275.65 K | 0.00658 kPa | 0.00785 kPa
278.15 K | 0.00883 kPa and 0.00884 kPa | 0.00997 kPa and 0.00998 kPa
280.65 K | 0.01183 kPa and 0.01185 kPa | 0.01262 kPa and 0.01263 kPa
283.15 K | 0.01576 kPa and 0.01575 kPa | 0.0159 kPa and 0.01591 kPa and 0.01587 kPa
285.65 K | – | 0.0199 kPa and 0.01992 kPa
288.15 K | – | 0.02494 kPa and 0.02505 kPa and 0.02501 kPa
290.65 K | – | 0.03092 kPa and 0.03099 kPa
293.15 K | – | 0.03842 kPa and 0.03848 kPa and 0.03849 kPa
295.65 K | – | 0.04735 kPa and 0.04742 kPa and 0.04744 kPa
298.15 K | – | 0.05877 kPa and 0.05861 kPa and 0.05859 kPa
300.65 K | – | 0.07124 kPa and 0.07125 kPa and 0.07143 kPa
303.15 K | – | 0.08725 kPa and 0.08736 kPa
303.16 K | – | 0.08722 kPa

[2], 100 kPa, Ideal gas
Settings | molar heat capacity at constant pressure [J/K/mol]
100 K | 42.58
150 K | 53.66
200 K | 64.26
250 K | 74.41
273.15 K | 79.16
298.15 K | 84.38
300 K | 84.78
400 K | 106.54
500 K | 127.9
600 K | 146.98
700 K | 163.08
800 K | 176.25
900 K | 186.86
1000 K | 195.39

[2], 101.33 kPa, Metastable liquid, Large sample (1 g) DSC
Settings | molar heat capacity at constant pressure
265.75 K | 160.55 J/K/mol
270.85 K | 161.8 J/K/mol
275.96 K | 162.46 J/K/mol
281.07 K | 163.71 J/K/mol
286.17 K | 164.54 J/K/mol
291.28 K | 165.54 J/K/mol and 165.87 J/K/mol
296.38 K | 166.54 J/K/mol and 167.29 J/K/mol
301.49 K | 168.12 J/K/mol and 167.79 J/K/mol
306.59 K | 169.2 J/K/mol and 169.12 J/K/mol
311.69 K | 170.28 J/K/mol and 170.53 J/K/mol
316.8 K | 171.36 J/K/mol and 171.69 J/K/mol
321.9 K | 172.61 J/K/mol and 173.11 J/K/mol
327.01 K | 174.1 J/K/mol and 174.27 J/K/mol
332.12 K | 175.68 J/K/mol and 175.35 J/K/mol
337.22 K | 176.68 J/K/mol and 177.18 J/K/mol
342.33 K | 178.1 J/K/mol and 178.59 J/K/mol
347.43 K | 179.51 J/K/mol and 179.43 J/K/mol
352.54 K | 181.26 J/K/mol and 181.34 J/K/mol
